In patent US20160024062A1, “ISOXAZOLINE DERIVATIVES FOR CONTROLLING INVERTEBRATE PESTS” (NOVARTIS TIERGESUNDHEIT AG, priority 2011, published 2016):

Columns and labels:
[1] = tested on: Ctenocephalides felis (cat flea); assay: Activity in vivo against Ctenocephalides felis (cat flea) on Mongolian gerbils (per oral application); details: dose 3.2 mg/kg, oral gavage, live fleas counted 48 h after infestation, vs placebo (Abbot's formula)
Description: On day 0, gerbils are treated orally by gavage with the test compound formulated at a given dose. Immediately after treatment, they are infested with a mixed adult population of cat fleas. Evaluation of efficacy is performed 48 h infestation by counting the numbers of live fleas recovered from the gerbils. Efficacy is expressed as comparison with a placebo treated group using the Abbot's formula.

[2] = tested on: Rhipicephalus sanquineus nymphs; assay: Activity in vivo against Rhipicephalus sanquineus nymphs on Mongolian gerbils (spray application); details: engorged nymphs counted seven days after infestation, vs placebo (Abbot's formula)
Description: On day 0, gerbils are treated with the test compound at a given dose by spray application. On day +1 (+2), the animals are infested with nymphs of R. sanguineus. Ticks are left on the animals until full repletion. Seven days after infestation nymphs dropped off fully engorged are collected and counted. Efficacy in killing is expressed as a tick number reduction in comparison with a placebo treated group, using the Abbot's formula.

[3] = tested on: Ctenocephalides felis (cat flea); assay: Activity in vivo against Ctenocephalides felis (cat flea) on Mongolian gerbils (spray application); details: live fleas counted 24 h and 48 h after infestation, vs placebo (Abbot's formula)
Description: On day 0, gerbils are treated with the test compound at a given dose by spray application. On day +1, the animals are infested with a mixed adult population of cat fleas. Evaluation of efficacy is performed 24 h and 48 h infestation by counting the numbers of live fleas recovered from the gerbils. Efficacy is expressed as comparison with a placebo treated group using the Abbot's formula.

SMILES	Efficacy in killing % [1] [%]	Efficacy in killing % ([2]; dose 10 mg/kg) [%]	Efficacy in killing % ([3]; dose 10 mg/kg) [%]	melting point [°C]	Efficacy in killing % ([2]; dose 100 mg/kg) [%]	Efficacy in killing % ([3]; dose 32 mg/kg) [%]
Cc1oc(C2=NOC(c3cc(Cl)cc(Cl)c3)(C(F)(F)F)C2)cc1C(=O)NCC(=O)NCC(F)(F)F (stereo not drawn) [Compound 1.19, 5-(5-(3,5-dichlorophenyl)-5-(trifluoromethyl)-4,5-dihydroisoxazol-3-yl)-2-methyl-N-(2-oxo-2-((2,2,2-trifluoroethyl)amino)ethyl)furan-3-carboxamide]	99	100	94	172 to 174	–	–
Cc1sc(C2=NOC(c3cc(Cl)cc(Cl)c3)(C(F)(F)F)C2)cc1C(=O)NCC(=O)NCC#N (stereo not drawn) [Compound 1.32, N-(2-((cyanomethyl)amino)-2-oxoethyl)-5-(5-(3,5-dichlorophenyl)-5-(trifluoromethyl)-4,5-dihydroisoxazol-3-yl)-2-methylthiophene-3-carboxamide]	–	–	–	–	85	96
